Experimental findings from article PMC11866022, “Long-Chain Cyclic Arylguanidines as Multifunctional Serotonin Receptor Ligands with Antiproliferative Activity” (ACS Omega, 2025) are described below.

One data set has as its system U-251 glioblastoma cells. The experiment in a line: Antiproliferative activity (MTS), U-251. The format is cell-based, human. Conditions: Homo sapiens, U-251; MTS assay, 72 h. The method, then: (§1) These cell lines were characterized by different mutation profiles, the main one being the variable status of the p53 protein. In detail, U87MG cells have a wild-type p53 protein, while astrocytoma and the rest of GBM cells harbor mutated p53 protein. Additional assays were performed on MCF7 breast cancer and AsPC-1 pancreatic cancer cells. The wide range of tested lines was aimed at screening the anticancer potential of the tested compounds. The first represents one of the most common and the second one of the most aggressive cancers in the world. Comparing the activity of compounds on GBM cells to other types of cancer may reveal their selectivity and usefulness in targeted therapies. The cytotoxicity of the compounds on normal human astrocytes (NHA) and Feline catus astrocyte (PG-4) was determined. Tests on normal lines serve to verify the potential toxicity of the tested compounds on healthy cells. Due to the targeting of CNS tumors, astrocytes were selected as normal lines.
(§2) The detailed procedure is presented in previous publications.[53] […] Cells were cultured in appropriate media, supplemented with FBS, antibiotics, and other supplements, and incubated at 37 °C with 5% CO2. […] Cell viability was assessed using the MTS assay, and the inhibitory concentration (IC50) was calculated using GraphPad Prism 8.0. Each compound was tested in triplicate across multiple experiments.
(Formazan colour is commonly taken as a measure of viable cells.)

Data set [1] deals with T1, 5-HT6 (Homo sapiens, UniProt P50406).
T1 construct: expressed in transfected cells; host or cells: HEK293
The experiment in a line: Radioligand binding assay, 5-HT6 ([3H]-LSD). The settings on record: HEK293 cell line with human 5-HT6R; 2 nM [3H]-LSD. As for the experimental part: Ligand affinity for 5-HT6 receptors was subsequently tested with a radioligand binding assay, using the HEK293 cell line with human 5-HT6R, aiming to select compounds with the strongest affinity. Three compounds belonging to 2-naphthalenesulfonamide derivatives of 3,4-dihydroquinazolin-2-amines were obtained (Table 1).
(§3) The detailed procedure is presented in previous publications.[53] Assays were performed by incubating for 1 h at 37 °C (room temperature for 5-HT1A) in 200 μL volumes on 96-well plates. The reaction was terminated by rapid filtration using Unifilter plates, and radioactivity on the filters was measured with a PerkinElmer Microbeta plate reader. Radioligands used were:
(§4) Eight concentrations (10^–4 to 10^–11 M) were tested in triplicate for each compound. Inhibition constants (Ki) were calculated using the Cheng–Prusoff equation.[54] The results are expressed as the means of at least two independent experiments.

The subject of a further data set is MCF7 breast cancer cells. Nature of the data set: Antiproliferative activity (MTS), MCF7. The format is cell-based, human. The settings on record: Homo sapiens, MCF7; MTS assay, 72 h. The method, then: as §1, §2
Data set [2] deals with T1, 5-HT6. The experiment in a line: Functional cAMP assay (LANCE Ultra), 5-HT6. It is filed as cell-based. Conditions: for function at 5-HT6: in words; for Kb: Table 3, unit inferred, cAMP, antagonist mode, 5-CT. As for the experimental part: (§5) Their functional activity was also evaluated by assessing their ability to inhibit agonist-induced cAMP production in HEK293 cells (Table 3). Extended radioisotope tests were aimed at detecting potential affinity for other aminergic receptors, whose role in cancer treatment may be important. Functions were tested for all receptors. The essence of functional tests results from the fact that serotonin stimulates tumor progression. Therefore, the ligand should have the potential to reduce its concentration, i.e., act as an antagonist.[39]
(§6) The detailed procedure is presented in previous publications.[53] The functional activity of the compounds was assessed using the LANCE Ultra cAMP detection kit (PerkinElmer). […] For other receptors (5-HT7R, 5-HT1AR, and 5-HT6R), 5-CT was used at 10, 100, and 1000 nM, respectively. Each compound was tested in triplicate across eight concentrations. The inhibitory constant (Kb) for each antagonist was calculated using the Cheng–Prusoff equation.
(In general: Cyclic AMP is a second messenger, typically raised through Gs and lowered through Gi signalling.)

The target of a further data set is T2, D2 (Homo sapiens, UniProt P14416).
T2 construct: expressed in transfected cells; host or cells: HEK293
Nature of the data set: Radioligand binding assay, D2 ([3H]-raclopride). The settings on record: Table 3, unit inferred; 2.5 nM [3H]-raclopride. As for the experimental part: as §5, §3
D2: 2.5 nM [^3H]-raclopride
as §4

The target in a further data set is T3, 5-HT1A (Homo sapiens, UniProt P08908).
T3 construct: expressed in transfected cells; host or cells: HEK293
T3 sequence (P08908 1-422): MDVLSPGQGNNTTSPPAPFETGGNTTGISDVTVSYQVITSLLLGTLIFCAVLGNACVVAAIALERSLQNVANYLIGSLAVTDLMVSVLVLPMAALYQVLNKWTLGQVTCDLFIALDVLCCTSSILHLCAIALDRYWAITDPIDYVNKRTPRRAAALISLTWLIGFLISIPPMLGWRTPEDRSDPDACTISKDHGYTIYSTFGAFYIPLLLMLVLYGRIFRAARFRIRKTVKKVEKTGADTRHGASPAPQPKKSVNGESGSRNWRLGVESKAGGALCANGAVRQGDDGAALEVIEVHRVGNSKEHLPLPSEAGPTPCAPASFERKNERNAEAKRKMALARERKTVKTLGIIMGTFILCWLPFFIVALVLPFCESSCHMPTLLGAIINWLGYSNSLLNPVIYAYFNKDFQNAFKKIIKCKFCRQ
Nature of the data set: Functional cAMP assay (LANCE Ultra), 5-HT1A. The format is cell-based. Conditions: for EC50: agonist mode; for function at 5-HT1A: in words. As for the experimental part: as §5, §6

A further data set concerns U87MG glioblastoma cells. The experiment in a line: Antiproliferative activity (MTS), U87MG. It is filed as cell-based, human. Conditions: Homo sapiens, U-87 MG; MTS assay. As for the experimental part:
as §1, §2
Supplementary materials - Biological research
B) U87MG glioblastoma multiforme line.
and U87MG glioblastoma multiforme line for C) PP 3; D) PP 6; E) PP 8; F) PP 10; G) PP 11; H) PP

The target of another data set is T4, 5-HT7 (Homo sapiens, UniProt P34969).
T4 construct: expressed in transfected cells; host or cells: HEK293
The experiment in a line: Radioligand binding assay, 5-HT7 ([3H]-5-CT). Conditions: Table 3, unit inferred; 0.8 nM [3H]-5-CT. The method, then: as §5, §3, §4

The nature of a further data set: in vitro. Conditions: PAMPA. A general note: The PAMPA barrier holds no transporters, so it reflects passive diffusion.
The nature of data set [3]: Solubility in DMSO and 10% DMSO in PBS buffer. The format is physicochemical. Conditions: symbols not defined; for Solubility, 10% DMSO, 1 mM: 10% DMSO in PBS buffer. As for the experimental part:
for 24 h. […] The IC50 were calculated as
Table S1. Solubility in DMSO and 10% DMSO in PBS buffer
3. Absorption – PAMPA permeability test
*Permeability coefficient.
**CFN = caffeine, well-permeable control

The test system of another data set is HSA and AGP (24:1). Nature of the data set: TRANSILXL PPB plasma protein binding assay. The settings on record: human, TRANSILXL PPB assay, HSA and AGP in a ratio 24:1.

SMILES strings stand for the structures.

One may read the IC50 as the concentration at which inhibition is half-maximal. A low value points to greater potency in that assay. The term Ki denotes a dissociation constant, usually derived from enzyme kinetics or from competition with a known ligand. Low values mean tighter binding, high ones weaker binding. The term EC50 denotes the concentration giving half of the maximal effect. One may read the Papp as the rate of passage across a membrane or cell layer, normalised by area and donor concentration. A low value points to poor permeation. As a reminder, the Kb is the affinity of an antagonist, worked out from how it opposes an agonist. Read a low Kb as a more potent antagonist. As usually defined, the fraction unbound is the share of the substance not bound to proteins or other matrix.

T1 sequence (P50406 whole entry): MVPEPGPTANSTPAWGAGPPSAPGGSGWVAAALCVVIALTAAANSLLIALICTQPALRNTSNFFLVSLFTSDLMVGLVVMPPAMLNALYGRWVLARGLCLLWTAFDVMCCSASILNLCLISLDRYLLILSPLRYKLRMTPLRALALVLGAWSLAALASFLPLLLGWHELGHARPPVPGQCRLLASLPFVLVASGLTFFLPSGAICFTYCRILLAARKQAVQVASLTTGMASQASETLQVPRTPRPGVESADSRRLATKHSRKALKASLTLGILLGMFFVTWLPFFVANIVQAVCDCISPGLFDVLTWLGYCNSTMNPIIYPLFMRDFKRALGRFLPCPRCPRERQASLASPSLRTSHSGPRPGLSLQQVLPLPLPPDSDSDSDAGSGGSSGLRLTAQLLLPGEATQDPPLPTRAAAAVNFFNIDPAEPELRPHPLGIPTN
T2 sequence (P14416 whole entry): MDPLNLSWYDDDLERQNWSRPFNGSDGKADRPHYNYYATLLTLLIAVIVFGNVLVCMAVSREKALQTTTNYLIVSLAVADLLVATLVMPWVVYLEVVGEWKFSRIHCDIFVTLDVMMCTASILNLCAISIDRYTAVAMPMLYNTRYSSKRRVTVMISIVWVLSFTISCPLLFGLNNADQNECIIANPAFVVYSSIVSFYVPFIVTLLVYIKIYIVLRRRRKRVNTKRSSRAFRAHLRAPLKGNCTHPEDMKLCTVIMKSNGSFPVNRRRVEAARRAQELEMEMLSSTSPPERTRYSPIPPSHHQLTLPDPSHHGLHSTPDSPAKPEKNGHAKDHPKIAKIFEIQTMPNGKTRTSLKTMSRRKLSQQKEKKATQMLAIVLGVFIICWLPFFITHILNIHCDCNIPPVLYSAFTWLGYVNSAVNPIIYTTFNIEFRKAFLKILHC
T4 sequence (P34969 whole entry, species assumed): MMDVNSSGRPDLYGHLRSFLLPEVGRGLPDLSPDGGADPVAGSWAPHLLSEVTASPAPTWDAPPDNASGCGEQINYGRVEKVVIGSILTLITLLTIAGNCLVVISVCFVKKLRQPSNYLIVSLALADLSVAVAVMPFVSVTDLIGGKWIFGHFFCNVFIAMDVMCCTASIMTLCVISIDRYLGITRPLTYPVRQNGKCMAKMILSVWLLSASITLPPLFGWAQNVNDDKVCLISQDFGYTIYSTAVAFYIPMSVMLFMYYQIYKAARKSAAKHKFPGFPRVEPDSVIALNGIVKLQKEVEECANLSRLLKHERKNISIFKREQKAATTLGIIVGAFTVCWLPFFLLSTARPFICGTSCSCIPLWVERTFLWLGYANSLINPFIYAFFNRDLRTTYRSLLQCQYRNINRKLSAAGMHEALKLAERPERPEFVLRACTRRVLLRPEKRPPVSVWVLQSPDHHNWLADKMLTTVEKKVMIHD

Consider `O=S(=O)(c1cccc2ccccc12)N1CCN(CCNC2=Nc3ccccc3CN2)CC1` [PP 6, N-{2-[4-(Naphthalene-1-sulfonyl)piperazin-1-yl]ethyl}-3,4-dihydroquinazolin-2-amine], for which the half-inhibitory concentration (IC50) in the data set on U-251 glioblastoma cells, in the data set with MCF7 breast cancer cells and in the data set on U87MG glioblastoma cells was above 25 µM throughout. Further, the Ki on 5-HT6 [1] stood at 0.109 ± 0.027 µM; on D2 it was 7.43 µM; on 5-HT7, 2.4 µM. The “function at 5-HT6” value on 5-HT6 [2] is listed as “agonist”. The molecule further returned a 50% effective concentration (EC50) at 5-HT1A (Table 3, unit inferred, cAMP) of 0.375 µM. The “function at 5-HT1A” value at 5-HT1A is on record as “agonist”.

Take `CC1NC(NCCCCCCNS(=O)(=O)c2cccc3ccccc23)=Nc2ccccc21` (stereo not shown) [PP 10, N-{6-[(4-Methyl-3,4-dihydroquinazolin-2-yl)amino]hexyl}naphthalene-1-sulfonamide]: the results for the 50% inhibitory concentration (IC50) with U-251 glioblastoma cells, in the data set on MCF7 breast cancer cells and with U87MG glioblastoma cells were above 25 µM, above 25 µM and 20.7 ± 1.2 µM, respectively. Moreover, in “in vitro”, the Papp amounted to 0.03 ×10⁻⁶ cm/s. For the same molecule, the Ki on 5-HT6 [1] came to 0.096 ± 0.022 µM; on D2, 2.93 µM; on 5-HT7 it was 0.189 µM. For the same molecule, the “Solubility, 10% DMSO, 1 mM” value in data set [3] is listed as “+ + +”. In addition, the “Solubility, 100% DMSO, 10 mM” value in data set [3] was “+ + +”. Further, the antagonist equilibrium constant (Kb) on 5-HT6 [2] came to 0.036 µM; on 5-HT1A (Table 3, unit inferred, cAMP, antagonist mode, 5-CT) it was 0.074 µM. Also, the “function at 5-HT6” value at 5-HT6 [2] is reported as “antagonist”. The “function at 5-HT1A” value on 5-HT1A was “antagonist”. For the same molecule, the fraction unbound in the data set with HSA and AGP (24:1) is 0.003.

As to `CC1NC(NCCCCCCNS(=O)(=O)c2c(Cl)ccc3ccccc23)=Nc2ccccc21` (stereo not shown) [PP 13, 2-Chloro-N-{6-[(4-methyl-3,4-dihydroquinazolin-2-yl)amino]hexyl}naphthalene-1-sulfonamide], the IC50 was above 25 µM in the data set with U-251 glioblastoma cells, 19.3 ± 0.3 µM with MCF7 breast cancer cells and 13.6 ± 1.1 µM with U87MG glioblastoma cells. For the same molecule, the Papp in “in vitro” was found to be 0.19 ×10⁻⁶ cm/s. The Ki at 5-HT6 [1] came out at 0.069 ± 0.017 µM; at D2 it was 1.9 µM; on 5-HT7, 0.198 µM. The “Solubility, 10% DMSO, 1 mM” value in data set [3] was “+ + +”. In [3], the “Solubility, 100% DMSO, 10 mM” value was “+ + +”. In addition, the “function at 5-HT6” value at 5-HT6 [2] is “agonist”. This molecule came in with an EC50 at 5-HT1A (Table 3, unit inferred, cAMP) of 1.54 µM. Further, at 5-HT1A, the “function at 5-HT1A” value was “agonist”. The fraction unbound in the data set on HSA and AGP (24:1) was determined as 0.001 ± 3e-07.

In the case of `O=S(=O)(NCCCCCCNc1ncc2ccccc2n1)c1cccc2ccccc12` [PP 15, N-{6-[(Quinazolin-2-yl)amino]hexyl}naphthalene-1-sulfonamide], the IC50 in the data set on U-251 glioblastoma cells, in the data set on MCF7 breast cancer cells and with U87MG glioblastoma cells was above 25 µM in each case. The Papp in “in vitro” is 0.13 ×10⁻⁶ cm/s. Moreover, the values for the inhibitory constant (Ki) at 5-HT6 [1], on D2 and at 5-HT7 were 0.042 ± 0.011 µM, 71.8 µM and 1.56 µM, respectively. Besides, the “Solubility, 10% DMSO, 1 mM” value in data set [3] was “+ + -”. Besides, the “Solubility, 100% DMSO, 10 mM” value in [3] was “+ + -”. Also, the Kb at 5-HT6 [2] was determined as 0.048 µM. Further, at 5-HT6 [2], the “function at 5-HT6” value was “antagonist”.

With `O=S1(=O)c2cccc3cccc(c23)N1CCCCCCNC1=Nc2ccccc2CN1` [PP 24, 3-{6-[(3,4-Dihydroquinazolin-2-yl)amino]hexyl}-2λ^6-thia-3-azatricyclo[6.3.1.0^4,^12]dodeca-1(11),4(12),5,7,9-pentaene-2,2-dione], the IC50 in the data set with U-251 glioblastoma cells was 16.5 ± 1 µM; with MCF7 breast cancer cells it was 15.7 ± 1.6 µM; with U87MG glioblastoma cells, 13.6 ± 0.6 µM. In the data set “in vitro”, this molecule gave a Papp of 0.73 ×10⁻⁶ cm/s. This molecule had a Ki at 5-HT6 [1] of 0.272 ± 0.068 µM. Moreover, in [3], the “Solubility, 10% DMSO, 1 mM” value is recorded as “+ + +”. Further, the “Solubility, 100% DMSO, 10 mM” value in [3] is recorded as “+ + +”. Besides, the fraction unbound in the data set on HSA and AGP (24:1) was 0.004.
